Assay results reported in US20120328696A1, “ANTI-PARKINSONIAN COMPOUND ACETYLSALICYLIC ACID MALTOL ESTER” (Hutecs Korea Pharmaceutical Co., Ltd., priority 2008, published 2012).

Columns and labels:
TH phospho-ser 40 = test: Striatal phospho-TH-ser 40 after MA (western blot); assay type: in vivo; conditions: p.o.; AME 50, EBS 20, rottlerin 20 mg/kg; MA 8 mg/kg i.p. x4; GPx-1 (+/+) and (−/−) mice
Procedure: (§1) The mice received four times of MA (8 mg/kg, ip) or saline as a 2 hr-time interval. Chemicals (AME, EBS, and PKC inhibitors) were administrated for 5 consecutive days (twice daily), and were given 2 times at 4 hr and 30 min before the first MA injection as shown in the experimental schedule. Animals were sacrificed at 4 hrs and 3 days after the final MA administration.
(§2) The western blot assays was performed as described previously (Kim et al., 2003). Tissues were homogenized in lysis buffer, containing 200 mM Tris HCl (pH 6.8), 1% SDS, 5 mM EGTA (ethylene glycol tetraacetic acid), 5 mM EDTA (ethylenediaminetetraacetic acid), 10% glycerol, 1× phosphatase inhibitor cocktail I, 1× protease inhibitor cocktail. Lysate was centrifuged at 12,000×g for 30 min and supernatant fraction was used for Western blot analysis. Proteins (20-50 ug/lane) were separated by 6%, 8%, 10% or 15% sodium dodecyl sulfate-polyacrylamide gel electrophoresis and transferred onto the PVDF membranes. Following transfer, the membranes were preincubated with 5% non-fat milk and incubated overnight at 4° C. with primary antibody against β-actin (1:50000, Sigma, St. Louis, Mo., USA), TH (1:5000, Chemicon), TH phosphor-Ser 19 (1:1000, Chemicon,), TH phosphor-Ser 31 (1:500, Chemicon), TH phosphor-Ser 40 (1:500, Chemicon), F4/80 (1:500, Serotec), GPx1 (1:2500, AbFrontier), PKC (1:5000, Santa Cruz biotechnology, Santa Cruz, Calif., USA), p53 (1:5000, Cell signaling, Beverly, Mass., USA), MDM2 (1:1000, BD Pharmingen, San Jose, Calif., USA), MDM2 phospho-Ser 166 (1:1000, cell signaling), BDNF (1:500, Chemicon), GDNF (1:250, Santa Cruz), COX-2 (1:2000, Cayman, Ann Arbor, MC, USA), IL-6 (1:2000, Abcam, Cambridge, Mass., USA), TNF-a (1:1000, R&D Systems, Mckinley place NE, NM, USA), IFN-γ (1:500, Chemicon) or Iba-1 (1:500, Wako, Osaka, Japan). And then, membranes were incubated with HRP-conjugated secondary anti-rabbit IgG (1:1000, GE healthcare, Piscataway, N.J., USA), anti-mouse IgG (1:1000, Sigma) or anti-goat IgG (1:1000, Sigma) for 2 h. […]

[1] = system: GPx-1 (+/+)- and GPx-1 (−/−)-mice; test: MA-induced hyperthermia (rectal temperature); assay type: in vivo; conditions: MA 8 mg/kg i.p. x4
Procedure: as §1
Rectal temperature was measured in the MA- or saline-treated mice. Measurement was performed at constant daytime intervals starting at 9:00 A.M. to avoid the influence on circadian variations. Rectal temperature was measured by inserting a thermometer probe lubricated with oil at least 3 cm into the rectum of the mice. To prevent sudden movements occurring especially in MA-treated mice, animals were gently handled with a wool glove while their tail was moved to allow the probe insertion. This was done to prevent the effects of restrain stress on rectal temperature. When the attempt to insert probe was not successful (i.e., sudden movements of the animal or the need to restrain the mouse), the animal was excluded from the groups.

interleukin (IL)-6 = test: IL-6 expression after MA (western blot); assay type: in vivo; conditions: p.o.; AME 50, EBS 20, rottlerin 20 mg/kg; MA 8 mg/kg i.p. x4; GPx-1 (+/+) and (−/−) mice
Procedure: as §1, §2

C57BL/6 mice [2] = test: Rota-rod test after MPTP; assay type: in vivo; conditions: AME 25 mg/kg p.o.; MPTP 25 mg/kg i.p. once a day for 7 days; 3 days after final MPTP
Procedure: (§3) AME (25 mg/kg, p.o) administration was started 4 days (twice daily) before the first injection of MPTP and continued for 7 consecutive days (once a day). MPTP was injected (25 mg/kg, i.p) once a day 1 h after AME treatment for consecutive 7 days.
The apparatus (Ugo Basile model 7650) consisted of a base platform and a rotating rod with a nonslippery surface. The rod was placed at a height of 15 cm from the base. The rod, 30 cm in length, was divided into 5 equal sections by 6 opaque disks (so that the subjects cannot be distracted by one another). To assess motor performance, the mice were first trained on the apparatus 2 minutes at a rate 4 r.p.m. per 30 s prior to the test. The test was performed 30 minutes after training and an accelerating paradigm was applied at a rate 4 r.p.m. per 30 s, starting from 4 r.p.m. to a maximum speed of 40 r.p.m., then the rotation speed was kept constant at 40 r.p.m. for a maximum of 300 s. The duration for which the animal could maintain balance on the rotating drum was measured as the rotarod latency, with a maximal cut-off time of 300 s.

cyclooxygenase (COX)-2 = test: COX-2 expression after MA (western blot); assay type: in vivo; conditions: p.o.; AME 50, EBS 20, rottlerin 20 mg/kg; MA 8 mg/kg i.p. x4; GPx-1 (+/+) and (−/−) mice
Procedure: as §1, §2

[3] = system: glial cell line-derived neurotrophic factor (GDNF); test: Striatal GDNF expression after MA (western blot); assay type: in vivo; conditions: p.o.; AME 50, EBS 20, rottlerin 20 mg/kg; MA 8 mg/kg i.p. x4; GPx-1 (+/+) and (−/−) mice
Procedure: as §1, §2

[4] = Kim et al., 1997a; cited from earlier work
C57BL/6 mice [5] = test: Locomotor activity after MPTP; assay type: in vivo; conditions: AME 25 mg/kg p.o.; MPTP 25 mg/kg i.p. once a day for 7 days; 3 days after final MPTP
Procedure: as §3
Locomotor activity measured for 30 min 3 days after the last MPTP administration using an automated video-tracking system (Noldus Information Technology, Wagenin, The Netherlands). Eight test boxes (40×40×30 cm high) were operated simultaneously by an IBM computer. Animals were studied individually during locomotion in each test box, where they were adapted for 5 min before starting the experiment. […] The distance traveled in cm by the animals in horizontal locomotor activity was analyzed. Data were collected and analyzed between 09:00 and 17:00 h (Kim et al., 2001).

PKCδ = test: Striatal PKCδ expression after MA (western blot); assay type: in vivo; conditions: MA 8 mg/kg i.p. x4, GPx-1 (+/+) and (−/−) mice; for effect on MA-induced striatal PKCδ expression: p.o., AME 25 or 50, EBS 10 or 20, rottlerin 10 or 20 mg/kg
Procedure: as §1
Tissues were homogenized in lysis buffer, containing 200 mM Tris HCl (pH 6.8), 1% SDS, 5 mM EGTA (ethylene glycol tetraacetic acid), 5 mM EDTA (ethylenediaminetetraacetic acid), 10% glycerol, 1× phosphatase inhibitor cocktail I, 1× protease inhibitor cocktail. Lysate was centrifuged at 12,000×g for 30 min and supernatant fraction was used for Western blot analysis. […] And then, membranes were incubated with HRP-conjugated secondary anti-rabbit IgG (1:1000, GE healthcare, Piscataway, N.J., USA), anti-mouse IgG (1:1000, Sigma) or anti-goat IgG (1:1000, Sigma) for 2 h. Subsequent visualization was performed using enhanced chemiluminescence system (ECL Plus®, GE healthcare).

[6] = p.o., AME 25 or 50, EBS 10 or 20, rottlerin 10 or 20 mg/kg (p<0.01 at high dose), GPx-1 (+/+) and (−/−) mice

Row | SMILES | effect on MA-induced decrease in phospho-TH-ser 40 (TH phospho-ser 40) | effect on MA-induced hyperthermia [1, 6] | effect on MA-induced increase in IL-6 expression (interleukin (IL)-6) | effect on MPTP-induced impairment in rota-rod performance (C57BL/6 mice [2]) | effect on MA-induced increase in COX-2 expression (cyclooxygenase (COX)-2) | effect on MA-induced reduction in GDNF expression [3] | gastrointestinal damage [4] | effect on MPTP-induced hypolocomotor activity (C57BL/6 mice [5]) | effect on MA-induced striatal PKCδ expression (PKCδ) | effect on MA-induced hyperthermia ([1]; PKC inhibitors intra-striatal (doses of Table 1), GPx-1 (+/+) and GPx-1 (−/−) mice) | effect on MA-induced increase in striatal PKCδ expression (PKCδ; intra-striatal)
1 | CC(=O)Oc1ccccc1C(=O)Oc1c(C)occc1=O [AME, 3-(2-methyl-4-pyronyl)-2-acetyloxybenzoate] | significantly blocked | attenuated hyperthermia induced by MA in a dose-related manner | significantly and consistently attenuating effects | significantly attenuated | significantly and consistently attenuating effects | significantly attenuated these reductions | negligible gastrointestinal damage | significant attenuated | significantly reduced MA-induced the PKCδ- and cleaved PKCδ-expressions in a dose-related manner |  | 
2 | CC(=O)c1c(O)c(C)c(O)c(Cc2c(O)c3c(c(C(=O)/C=C/c4ccccc4)c2O)OC(C)(C)C=C3)c1O [rottlerin] | significantly blocked | attenuated hyperthermia induced by MA in a dose-related manner | significantly and consistently attenuating effects |  | significantly and consistently attenuating effects | significantly attenuated these reductions |  |  | significantly reduced MA-induced the PKCδ- and cleaved PKCδ-expressions in a dose-related manner | significantly blocked MA-induced hyperthermia in a dose-dependent manner | attenuated the MA-induced increases in PKCδ expressions in a dose-dependent manner
3 | O=c1c2ccccc2[se]n1-c1ccccc1 [EBS, 2-phenyl-1,2-benzisoselenazol-3(2H)-one] | significantly blocked | attenuated hyperthermia induced by MA in a dose-related manner | significantly and consistently attenuating effects |  | significantly and consistently attenuating effects | significantly attenuated these reductions |  |  | significantly reduced MA-induced the PKCδ- and cleaved PKCδ-expressions in a dose-related manner |  | 
